Measurements as given in patent US20190330140A1, “Compound for Use in Enzymatic Reaction and Mass Spectrometry Method” (HITACHI HIGH-TECHNOLOGIES CORPORATION, priority 2016, published 2019).

System: galactosidase
Assay: enzymatic reaction with galactosidase, product measured
Assay type: biochemical
Details: 0.5 ng/ml galactosidase, 1 hour
Description: When a solution of 20 ng/ml of HVG and 0.5 ng/ml of galactosidase in a 10 mmol/L phosphate buffer (pH 7.3) containing 5% (v/v) of methanol and 1 mmol of magnesium chloride was prepared and was reacted at 37° C. for 1 hour, 0.532 ng/ml of HV was then produced. […] It was found from this example that HVG has the same level of enzymatic susceptibility as p-nitrophenylgalactoside which is known as a good substrate for galactosidases.

HV produced from substrate (20 ng/ml HVG, 10 mmol/L phosphate buffer pH 7.3, 5% methanol, MgCl2, 37° C.) [ng/mL] | p-nitrophenol produced from substrate (substrate in place of HVG, phosphate buffer pH 7.3, 37° C.) [ng/mL] | SMILES
0.532 | – | COc1ccc(CCN(C)CCCC(C(=O)Nc2ccc(O[C@@H]3OC(CO)[C@H](O)[C@@H](O)C3O)cc2)(c2ccc(OC)c(OC)c2)C(C)C)cc1OC (some centres unmarked) [HVG]
– | 0.532 | O=[N+]([O-])c1ccc(O[C@@H]2O[C@H](CO)[C@H](O)[C@H](O)[C@H]2O)cc1 [p-Nitrophenyl galactoside]
